The results in this text go back to patent US20170343551A1, “METHOD OF DIAGNOSING AND TREATING PROSTATE CANCER” (Board of Supervisors of Louisiana State University and …, priority 2016, published 2017).

Type in all cases: cell-based
The subject of experiment [1] is TMS1 in PC3 cells. Put plainly: TMS1 expression (methylation-repressed positive control gene) in treated PC3 cells. As to conditions: known methylation-repressed gene as positive control, FIG. 8A. The source says:
(§1) FIGS. 8A-8C show SPDEF is subjected to DNA methylation regulation.

Experiment [2] concerns SPDEF mRNA in PC3 cells. The experiment is described as follows: SPDEF (PDEF) mRNA expression by RT-PCR in treated PC3 cells. As to conditions: FIG. 8A/8B.
From the text: as §1
(§2) Both culture and socioeconomic status can affect epigenetic processes; and the epigenetic modification effects can extend not only throughout the life course, but also to generations followed. DNA methylation and histone modifications are two common epigenetic mechanisms that control the expression of affected genes. […] Concomitant with the increased levels of SPDEF, 5-aza treatments reduced the cell migration and invasion ability of PC3 cells. Additionally, the inventors have also examined the distribution of CpG islands in the proximal promoter region of SPDEF. […] Expected treatment levels include, for example, azacytidine 2.5 mg/kg and decitabine 2.5 mg/kg.

Experiment [3] relates to PC3 cells. The experiment is described as follows: Invasion ability of PC3 cells.
For experiment [4], the system named is PC3 cells. Put plainly: Cell migration ability of PC3 cells. As to conditions: FIG. 8C.
From the text: as §1, §2

In the case of `Nc1ncn([C@H]2C[C@H](O)[C@@H](CO)O2)c(=O)n1` [5-Aza, 5-aza-2′-deoxycytidine], the “expression of TMS1” value in experiment [1] is recorded as “induced”. In addition, the “expression of SPDEF (PDEF) mRNA” value in experiment [2] is given as “induced”. Also, in experiment [3], the invasion ability entry is recorded as “reduced”. In addition, in experiment [4], the cell migration ability entry is listed as “reduced”.
Take `CCCC(CCC)C(=O)O` [VPA, valproic acid]: the “expression of SPDEF (PDEF) mRNA” value in experiment [2] is listed as “did not alter”.
